Laboratory results from ChEMBL document CHEMBL5532664, “Discovery, Optimization, and Evaluation of Potent and Selective DNA-PK Inhibitors in Combination with Chemotherapy or Radiotherapy for the Treatment of Malignancies” (J Med Chem, 2024).
Calls of active or inactive are those of the source. No cut-off for these calls is given here.

Legend:
HCT-116 [1] = experiment: Induction of cell cycle arrest in human HCT-116 cells assessed as accumulation of cells G2/M phase at 2000 nM (reference value: […]%); type: functional
HCT-116 [2] = experiment: Inhibition of colony formation in human HCT-116 cells preincubated with compound for 1 hr followed by exposure to 2 Gy gamma irradiation and measured after 7 days by crystal violet staining based chemiluminescence assay; type: functional, cell-based; conditions: HCT-116, light or radiation study
HCT-116 [3] = experiment: Inhibition of bleomycin-induced DNA-double stranded breaks in human HCT-116 cells assessed as reduction in gammaH2AX level pretreated for 1 hrs followed by bleomycin addition and measured after 6 hrs Western blot analysis; type: functional, cell-based; conditions: dose 0.03-30 µM, time 7.0 hrs
HCT-116 [4] = experiment: Induction of cell cycle arrest in human HCT-116 cells assessed as accumulation of cells G2/M phase at 250 nM (reference value: […]%); type: functional
HCT-116 [5] = experiment: Induction of cell cycle arrest in human HCT-116 cells assessed as accumulation of cells S phase at 2000 nM (reference value: 19.72%); type: functional
HCT-116 [6] = experiment: Induction of cell cycle arrest in human HCT-116 cells assessed as accumulation of cells G0/G1 phase at 250 nM incubated for 1 hr followed by exposure to 2 Gy gamma irradiation and measured after 48 hrs propidium iodide staining based analysis (reference value: 60.01%); type: functional; conditions: time 49 hrs
HCT-116 [7] = experiment: Inhibition of colony formation in human HCT-116 cells at […] preincubated with compound for 1 hr followed by exposure to 2 Gy gamma irradiation and measured after 7 days by crystal violet staining based chemiluminescence assay relative to control; type: functional; conditions: HCT-116, light or radiation study, dose 0.25 µM, time 169 hrs
HCT-116 [8] = experiment: Induction of cell cycle arrest in human HCT-116 cells assessed as accumulation of cells S phase at 1000 nM (reference value: 19.72%); type: functional
HCT-116 [9] = experiment: Induction of cell cycle arrest in human HCT-116 cells assessed as accumulation of cells S phase at 250 nM incubated for 1 hr followed by exposure to 2 Gy gamma irradiation and measured after 48 hrs propidium iodide staining based analysis (reference value: 21.35%); type: functional; conditions: time 49 hrs
HCT-116 [10] = experiment: Induction of cell cycle arrest in human HCT-116 cells assessed as accumulation of cells G2/M phase at 500 nM incubated for 1 hr followed by exposure to 2 Gy gamma irradiation and measured after 48 hrs propidium iodide staining based analysis (reference value: 18.65%); type: functional; conditions: time 49 hrs
HCT-116 [11] = experiment: Induction of cell cycle arrest in human HCT-116 cells assessed as accumulation of cells S phase at 250 nM (reference value: 19.72%); type: functional
HCT-116 [12] = experiment: Induction of cell cycle arrest in human HCT-116 cells assessed as accumulation of cells G0/G1 phase at 250 nM (reference value: 66.45%); type: functional
HCT-116 [13] = experiment: Induction of cell cycle arrest in human HCT-116 cells assessed as accumulation of cells G0/G1 phase at 1000 nM (reference value: 66.45%); type: functional
HCT-116 [14] = experiment: Induction of cell cycle arrest in human HCT-116 cells assessed as accumulation of cells G2/M phase at 250 nM incubated for 1 hr followed by exposure to 2 Gy gamma irradiation and measured after 48 hrs propidium iodide staining based analysis (reference value: 18.65%); type: functional; conditions: time 49 hrs
HCT-116 [15] = experiment: Induction of cell cycle arrest in human HCT-116 cells assessed as accumulation of cells G2/M phase at 1000 nM (reference value: […]%); type: functional
HCT-116 [16] = experiment: Induction of cell cycle arrest in human HCT-116 cells assessed as accumulation of cells G0/G1 phase at 500 nM (reference value: 66.45%); type: functional
HCT-116 [17] = experiment: Induction of cell cycle arrest in human HCT-116 cells assessed as accumulation of cells G2/M phase at 500 nM (reference value: […]%); type: functional
HCT-116 [18] = experiment: Induction of cell cycle arrest in human HCT-116 cells assessed as accumulation of cells G0/G1 phase at 500 nM incubated for 1 hr followed by exposure to 2 Gy gamma irradiation and measured after 48 hrs propidium iodide staining based analysis (reference value: 60.01%); type: functional; conditions: time 49 hrs
HCT-116 [19] = experiment: Induction of cell cycle arrest in human HCT-116 cells assessed as accumulation of cells G0/G1 phase at 2000 nM incubated for 1 hr followed by exposure to 2 Gy gamma irradiation and measured after 48 hrs propidium iodide staining based analysis (reference value: 60.01%); type: functional; conditions: time 49 hrs
HCT-116 [20] = experiment: Induction of cell cycle arrest in human HCT-116 cells assessed as accumulation of cells G2/M phase at 2000 nM incubated for 1 hr followed by exposure to 2 Gy gamma irradiation and measured after 48 hrs propidium iodide staining based analysis (reference value: 18.65%); type: functional; conditions: time 49 hrs
HCT-116 [21] = experiment: Induction of cell cycle arrest in human HCT-116 cells assessed as accumulation of cells S phase at 500 nM (reference value: 19.72%); type: functional
NCI-H460 = experiment: Antitumor activity against human NCI-H460 cells xenografted in BALB/ c nude mouse assessed as inhibition of tumor growth at 100 mg/kg, po administered once daily with 2 Gy irradiation and measured upto 7 days by vernier caliper analysis; type: functional, organism-based; conditions: time <= 7.0 day
HCT-116 [22] = experiment: Induction of cell cycle arrest in human HCT-116 cells assessed as accumulation of cells G0/G1 phase at 2000 nM (reference value: 66.45%); type: functional
A549 [23] = experiment: Antitumor activity against human A549 cells xenografted in BALB/c nude mouse assessed as tumor growth inhibition at 7.5 mg/kg, po administered once daily measured upto 26 days in presence of paclitaxel by vernier caliper analysis relative to control; type: functional; conditions: A549, 624 h, time <= 26 day, read-out: TGI
BT-474 = experiment: Antitumor activity against human BT-474 cells xenografted in BALB/c nude mouse assessed as inhibition of tumor growth at 0.25 to 12.5 mg/kg, po measured upto 10 days in presence of liposome doxorubicin by vernier caliper analysis; type: functional, organism-based; conditions: dose lower […], dose upper 12.5 mg/kg, time <= 10.0 day
HCT-116 [24] = experiment: Induction of cell cycle arrest in human HCT-116 cells assessed as accumulation of cells G0/G1 phase at 1000 nM incubated for 1 hr followed by exposure to 2 Gy gamma irradiation and measured after 48 hrs propidium iodide staining based analysis (reference value: 60.01%); type: functional; conditions: time 49 hrs
HCT-116 [25] = experiment: Induction of cell cycle arrest in human HCT-116 cells assessed as accumulation of cells S phase at 500 nM incubated for 1 hr followed by exposure to 2 Gy gamma irradiation and measured after 48 hrs propidium iodide staining based analysis (reference value: 21.35%); type: functional; conditions: time 49 hrs
HCT-116 [26] = experiment: Induction of cell cycle arrest in human HCT-116 cells assessed as accumulation of cells S phase at 1000 nM incubated for 1 hr followed by exposure to 2 Gy gamma irradiation and measured after 48 hrs propidium iodide staining based analysis (reference value: 21.35%); type: functional; conditions: time 49 hrs
HCT-116 [27] = experiment: Induction of cell cycle arrest in human HCT-116 cells assessed as accumulation of cells G2/M phase at 1000 nM incubated for 1 hr followed by exposure to 2 Gy gamma irradiation and measured after 48 hrs propidium iodide staining based analysis (reference value: 18.65%); type: functional; conditions: time 49 hrs
HCT-116 [28] = experiment: Induction of cell cycle arrest in human HCT-116 cells assessed as accumulation of cells S phase at 2000 nM incubated for 1 hr followed by exposure to 2 Gy gamma irradiation and measured after 48 hrs propidium iodide staining based analysis (reference value: 21.35%); type: functional; conditions: time 49 hrs
in vivo [29] = conditions: Sprague-Dawley, rat, iv, 5 mg/kg
[30] = Toxicity in BALB/c nude mouse assessed as effect on body weight loss at 15 mg/kg, po measured upto 28 days […]; type: organism-based; conditions: in vivo, 672 h, time < 28 day
A549 [31] = experiment: Antitumor activity against human A549 cells xenografted in BALB/c nude mouse assessed as tumor growth inhibition at 15 mg/kg, po administered once daily measured upto 26 days in presence of paclitaxel by vernier caliper analysis relative to control; type: functional; conditions: A549, 624 h, time <= 26 day, read-out: TGI
[32] = rat, in vivo, po, 5 mg/kg, 24 h
in vivo [33] = conditions: Sprague-Dawley, rat, po, 5 mg/kg
in vivo [34] = conditions: Sprague-Dawley, rat, po, 5 mg/kg; remark: listed apart in the source
in vivo [35] = conditions: Sprague-Dawley, rat, iv, 5 mg/kg; remark: listed apart in the source

Q: What does the source list for `Cc1cc(-c2cnn(C)c2)ncc1Nc1ncc2c(n1)n(C1CCOCC1)c(=O)n2C`?
A: Activity (HCT-116 [1]): 16.46%; IC50 (HCT-116 [2]): 33.3 nM; inhibition (HCT-116 [3]): Dose-Dependent Effect; Activity (HCT-116 [4]): 15.81%; Activity (HCT-116 [5]): 22.92%; Activity (HCT-116 [6]): 53.41%; inhibition at […] (HCT-116 [7]): 99.4%; Activity (HCT-116 [8]): 21.75%; Activity (HCT-116 [9]): 22.74%; Activity (HCT-116 [10]): 30.99%; Activity (HCT-116 [11]): 19.94%; Activity (HCT-116 [12]): 65.15%; Activity (HCT-116 [13]): 61.36%; Activity (HCT-116 [14]): 21.65%; Activity (HCT-116 [15]): 14.91%; Activity (HCT-116 [16]): 60.76%; Activity (HCT-116 [17]): 15.5%; Activity (HCT-116 [18]): 45.35%; Activity (HCT-116 [19]): 24.76%; Activity (HCT-116 [20]): 69.21%; Activity (HCT-116 [21]): 23.44%; Activity (NCI-H460): Active; Activity (HCT-116 [22]): 60.62%; inhibition in vivo at 7.5 mg/kg (A549 [23]): 78.8%; Activity (BT-474): Active; Activity (HCT-116 [24]): 32.64%; Activity (HCT-116 [25]): 25.63%; Activity (HCT-116 [26]): 13.82%; Activity (HCT-116 [27]): 53.54%; Activity (HCT-116 [28]): 9.03%

Q: For `Cc1cc2ncnn2cc1Nc1ncc2c(n1)n(C1CCOCC1)c(=O)n2C` [AZD-7648], which IC50 (HCT-116 [2]) is on record?
A: 38.1 nM

Q: And the Cmax at 24 h (in vivo [29])?
A: 2620 ng/mL

Q: What about the Activity [30] of the same molecule?
A: Non-Toxic

Q: What about the inhibition in vivo at 15 mg/kg (A549 [31]) of the same molecule?
A: 46.1%

Q: And the inhibition at […] (HCT-116 [7])?
A: 98.2%

Q: And the AUCt [32]?
A: 2458.98 ng·h/mL

Q: And the bioavailability at 24 h (in vivo [33])?
A: 78.1%

Q: What about the Activity (NCI-H460) of the same molecule?
A: Active

Q: What about the Cmax at 24 h (in vivo [34]) of the same molecule?
A: 836 ng/mL

Q: What about the AUC(0-t) at 24 h (in vivo [35]) of the same molecule?
A: 3150 ng·h/mL
